In patent US20050107386A1, “Methods of treating diseases and disorders by targeting multiple kinases” (priority 2003, published 2005):

Tested on: HCT-116 cells
Test: SCID mouse/HCT-116 xenograft model
Details: for % Tumor Growth Inhibition: day 28; for TGD (500 mm^3): days to reach 500 mm^3; for TGD (1000 mm^3): days to reach 1000 mm^3

CCc1c2c(nc3ccc(OC(=O)N4CCC(N5CCCCC5)CC4)cc13)-c1cc3c(c(=O)n1C2)COC(=O)[C@]3(O)CC.Cl [Camptosar, reference compound]
TGD (days to reach 1000 mm^3) (Table 3, i.p. 25 mg/kg q4d): >12 days
% Tumor Growth Inhibition (Table 3, i.p. 25 mg/kg q4d): 95.4%
% Tumor Growth Inhibition (Table 5, i.p. 2.5 mg/kg q4d): 66%
TGD (500 mm^3) (Table 5, i.p. 2.5 mg/kg q4d): >6 days
TGD (1000 mm^3) (Table 5, i.p. 2.5 mg/kg q4d): >10 days
% Tumor Growth Inhibition (Table 5, i.p. 10 mg/kg q4d): 90%
TGD (500 mm^3) (Table 5, i.p. 10 mg/kg q4d): >13 days
TGD (1000 mm^3) (Table 5, i.p. 10 mg/kg q4d): >10 days
